Measured values taken from patent publication US10688200B2, “Urea-based prostate specific membrane antigen (PSMA) inhibitors for imaging and therapy” (Five Eleven Pharma Inc., priority 2015, dated 2020).

Tests used:
[1] = test system: PSMA-expressing LNCaP cells; assay: Cell binding and internalization; format: cell-based, human; conditions: for Cell surface binding activity / Internalized activity: 37° C.
Protocol: The cellular uptake and internalization kinetics of the [^68Ga]1a, [^68Ga]5a and [^68Ga]5b were determined using PSMA-expressing LNCaP cells. Furthermore, to be able to discriminate between total cellular activity (sum of membrane-associated and internalized activity) and internalized activity, all incubations were followed by a washing step with mild acid at 4° C. to remove specifically cell-surface bound radioligand by displacement.
LNCaP cells (in 6-well plates in triplicates) were incubated in RPMI-1640 medium with [^68Ga]1a, [^68Ga]5a or [^68Ga]5b for 0-2 h at 37° C. At the indicated time, the medium was removed and the cells were washed twice and then incubated with a mild acid buffer (50 mM glycine, 150 mM NaCl, pH 3.0) at 4° C. for 5 min. The supernatant (containing cell surface-bound radioactivity) was pooled and the cell pellet (containing internalized radioactivity) was collected with filter paper and then radioactivity in supernatant and cell pellet was counted on a gamma counter.
LNCaP cells were incubated with [^68Ga]1a, [^68Ga]5a and [^68Ga]5b for up to 2 h at 37° C. to determine whether the compound is internalized by endocytosis. The cells were then washed with a mild acid buffer to remove extracellularly bound compound.
Non specific binding (NSB) was evaluated by blocking with 20 μM PMPA. Specificity of cell uptake (SB) was calculated by subtracting the respective signals resulting from PMPA blocking. Values are expressed as % of applied radioactivity bound to 10^6 cells.

[2] = test system: LNCaP PSMA+ and PC-3 PSMA− tumor bearing mice; assay: Small animal microPET imaging of [68Ga]5b in tumor bearing nude mice; format: in vivo, mouse
Protocol: This study was performed in a small animal imaging facility Male CD-1-nu/nu mice were implanted subcutaneously with 5×10^6 LNCaP cells and PC-3 cells. When the tumors reached approximately 5-10 mm in diameter, the mice were used for microPET imaging. Mice bearing LNCaP tumor and PC-3 tumors were injected via the tail vein with ˜0.5 mCi of [^68Ga]5b. Imaging studies were carried out under general anesthesia of the animals, induced with inhalation of […] and maintained with inhalation of […] isoflurane in 30% oxygen/air. Animals were positioned prone in the scanner. Whole body scan was performed for 15 min from 60 min post-injection of radiotracers. PET images were generated using the AMIDE software. MicroPET images obtained in LNCaP and PC-3 tumor xenografts from 60 min to 75 min after injection of [^68Ga]5b are shown in FIGS. 5A-5C.

[3] = Biodistribution of radiotracers in normal mice; format: in vivo, mouse
Method in brief: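 Male CD-1 mice received 35 μCi [^68Ga] radiotracer (0.2 nmole ligand) by tail vein. Four mice per time point sacrificed at 2, 30, 60 and 120 min p.i.; organs and blood weighed and gamma counted. %ID/g calculated against a standard dilution of the dose, decay-corrected.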

[4] = 60 min to 75 min after injection

SMILES: O=C(O)CCc1ccc2c(c1)C[N+]13CC[N+]45CC(=O)[O][68Ga-3]14([O]C(=O)C3)([O]2)[O]c1ccc(CCC(=O)NCC(=O)N[C@@H](Cc2ccc(OCC(=O)N[C@@H](Cc3ccccc3)C(=O)NCCCC[C@H](NC(=O)N[C@@H](CCC(=O)O)C(=O)O)C(=O)O)cc2)C(=O)O)cc1C5 (stereo partly shown) [[^68Ga]5b]
- Cell surface binding activity ([1]; 5 min): 2.50 ± 0.79 % ID/10^6 cells
- Internalized activity ([1]; 5 min): 1.58 ± 0.30 % ID/10^6 cells
- Cell surface binding activity ([1]; 15 min): 2.87 ± 0.10 % ID/10^6 cells
- Internalized activity ([1]; 15 min): 4.08 ± 0.01 % ID/10^6 cells
- Cell surface binding activity ([1]; 30 min): 3.54 ± 0.62 % ID/10^6 cells
- Internalized activity ([1]; 30 min): 8.29 ± 0.54 % ID/10^6 cells
- Cell surface binding activity ([1]; 60 min): 3.74 ± 0.33 % ID/10^6 cells
- Internalized activity ([1]; 60 min): 12.5 ± 0.46 % ID/10^6 cells
- Cell surface binding activity ([1]; 90 min): 5.03 ± 0.41 % ID/10^6 cells
- Internalized activity ([1]; 90 min): 20.0 ± 2.54 % ID/10^6 cells
- Cell surface binding activity ([1]; 120 min): 4.69 ± 0.45 % ID/10^6 cells
- Internalized activity ([1]; 120 min): 18.9 ± 1.61 % ID/10^6 cells
- Non specific binding (NSB) in LNCaP cell uptake, in words ([1]; blocking with 20 μM PMPA, FIG. 4): extremely low
- Internalized activity, comparison in words ([1]; up to 2 h at 37° C.): much higher than those of [^68Ga]1a and [^68Ga]5a
- Binding in LNCaP tumor and kidney with 2-PMPA co-injection, in words ([2]; 2-PMPA 2 mg/kg co-injected): binding was abolished in the LNCaP tumor and kidney tissue
- PC-3 (PSMA negative) tumor uptake in microPET, in words [2, 4]: did not show any uptakes
- Uptake in microPET images, in words [2, 4]: uptake was seen only in the kidneys, bladder and PSMA positive LNCaP tumor
- Clearance from organs, in words ([3]; normal CD-1 male mice): cleared quickly and well except kidneys and spleen
- Biodistribution: Body leftover ([3]; normal CD-1 male mice, 2 min): 2.30 ± 0.05 % dose/g
- Biodistribution: Fat ([3]; normal CD-1 male mice, 2 min): 2.08 ± 0.27 % dose/g
- Biodistribution: Large intestine ([3]; normal CD-1 male mice, 2 min): 1.20 ± 0.20 % dose/g
- Biodistribution: Seminal vesicles ([3]; normal CD-1 male mice, 2 min): 1.47 ± 0.25 % dose/g
- Biodistribution: Small intestine ([3]; normal CD-1 male mice, 2 min): 2.46 ± 0.15 % dose/g
- Biodistribution: Stomach ([3]; normal CD-1 male mice, 2 min): 0.81 ± 0.29 % dose/g
- Biodistribution: Tail ([3]; normal CD-1 male mice, 2 min): 8.08 ± 0.78 % dose/g
- Biodistribution: Testes ([3]; normal CD-1 male mice, 2 min): 0.96 ± 0.15 % dose/g
- Biodistribution: Body leftover ([3]; normal CD-1 male mice, 30 min): 0.98 ± 0.05 % dose/g
- Biodistribution: Fat ([3]; normal CD-1 male mice, 30 min): 1.45 ± 0.13 % dose/g
- Biodistribution: Large intestine ([3]; normal CD-1 male mice, 30 min): 0.37 ± 0.04 % dose/g
- Biodistribution: Seminal vesicles ([3]; normal CD-1 male mice, 30 min): 1.13 ± 0.19 % dose/g
- Biodistribution: Small intestine ([3]; normal CD-1 male mice, 30 min): 1.03 ± 0.07 % dose/g
- Biodistribution: Stomach ([3]; normal CD-1 male mice, 30 min): 0.31 ± 0.07 % dose/g
- Biodistribution: Tail ([3]; normal CD-1 male mice, 30 min): 2.92 ± 0.95 % dose/g
- Biodistribution: Testes ([3]; normal CD-1 male mice, 30 min): 1.14 ± 0.21 % dose/g
- Biodistribution: Body leftover ([3]; normal CD-1 male mice, 60 min): 0.52 ± 0.11 % dose/g
- Biodistribution: Fat ([3]; normal CD-1 male mice, 60 min): 0.73 ± 0.11 % dose/g
- Biodistribution: Large intestine ([3]; normal CD-1 male mice, 60 min): 0.31 ± 0.21 % dose/g
- Biodistribution: Seminal vesicles ([3]; normal CD-1 male mice, 60 min): 0.94 ± 0.22 % dose/g
- Biodistribution: Small intestine ([3]; normal CD-1 male mice, 60 min): 0.74 ± 0.17 % dose/g
- Biodistribution: Stomach ([3]; normal CD-1 male mice, 60 min): 0.17 ± 0.06 % dose/g
- Biodistribution: Tail ([3]; normal CD-1 male mice, 60 min): 1.73 ± 0.55 % dose/g
- Biodistribution: Testes ([3]; normal CD-1 male mice, 60 min): 0.82 ± 0.06 % dose/g
- Biodistribution: Body leftover ([3]; normal CD-1 male mice, 120 min): 0.27 ± 0.01 % dose/g
- Biodistribution: Fat ([3]; normal CD-1 male mice, 120 min): 0.35 ± 0.04 % dose/g
- Biodistribution: Large intestine ([3]; normal CD-1 male mice, 120 min): 0.54 ± 0.16 % dose/g
- Biodistribution: Seminal vesicles ([3]; normal CD-1 male mice, 120 min): 0.64 ± 0.10 % dose/g
- Biodistribution: Small intestine ([3]; normal CD-1 male mice, 120 min): 0.45 ± 0.12 % dose/g
- Biodistribution: Stomach ([3]; normal CD-1 male mice, 120 min): 0.22 ± 0.05 % dose/g
- Biodistribution: Tail ([3]; normal CD-1 male mice, 120 min): 0.55 ± 0.04 % dose/g
- Biodistribution: Testes ([3]; normal CD-1 male mice, 120 min): 0.68 ± 0.06 % dose/g
- Biodistribution: Blood ([3]; normal male mice, 2 min): 7.94 ± 0.52 % dose/g
- Biodistribution: Bone ([3]; normal male mice, 2 min): 2.16 ± 0.11 % dose/g
